# Test results as given in patent US9499550B2 (BRISTOL-MYERS SQUIBB COMPANY, priority 2012, dated 2016).
# pEC50: −log10 of the molar value. Read-outs that look alike come from different tables or passages of the source.
# What was measured:
# [1] = tested on: HCV genotype 1a (H77 strain) replicon in HUH-7 cells; assay: HCV replicon luciferase reporter assay, genotype 1a; assay type: cell-based; settings: Hepatitis C virus, Huh-7, 72 h, 3 days incubation
# Procedure, shortened: (§1)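 Replicon inhibition for both genotypes was measured as Renilla luciferase signal (EnduRen, 7.5 μM final, 2 h) after 3-day, 37° C exposure of replicon-bearing HUH-7 cells in 4% FCS DMEM, 0.5% DMSO. The 1b construct carries S1179I; the 1a H77 construct carries P1496L and S2204I. Twenty-point, 3-fold dilutions were fitted four-parametrically for EC50, and CC50 was taken from multiplexed Cell Titer-Blue.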
# [2] = tested on: HCV genotype 1b (Con1) replicon in HUH-7 cells; assay: HCV replicon luciferase reporter assay, genotype 1b; assay type: cell-based; settings: Hepatitis C virus, Huh-7, 72 h, 3 days incubation
# Procedure, shortened: as §1
# [3] = HCV genotype 1a replicon luciferase, read-out: LE_1a (EC50, range)
# [4] = HCV genotype 1b replicon luciferase, read-out: LE_1b (EC50, range)
# [5] = HCV genotype 1a replicon luciferase assay, range class, read-out: LE_1a (EC50, range)
# [6] = HCV genotype 1b replicon luciferase assay, range class, read-out: LE_1b (EC50, range)
Compound,"pEC50 [1, 3]","pEC50 [2, 4]",other results
"CCOc1ccc2c(O[C@@H]3C[C@H]4C(=O)N[C@]5(C(=O)NS(=O)(=O)C6(C)CC6)C[C@H]5/C=C\CC[C@@H](C)C[C@@H](C)[C@H](NC(=O)OCC5(C)CC5)C(=O)N4C3)nccc2c1 [Compound 5140, (1-methylcyclopropyl)methyl ((2R,6S,7R,9R,13aS,14aR,16aS,Z)-2-((6-ethoxyisoquinolin-1-yl)oxy)-7,9-dimethyl-14a-(((1-methylcyclopropyl)sulfonyl)carbamoyl)-5,16-dioxo-1,2,3,5,6,7,8,9,10,11,13a,14,14a,15,16,16a-hexadecahydrocyclopropa[e]pyrrolo[1,2-a][1,4]diazacyclopentadecin-6-yl)carbamate]",> 8.26,> 8.26,
"CCn1nc(O[C@@H]2C[C@H]3C(=O)N[C@]4(C(=O)NS(=O)(=O)C5CC5)C[C@H]4/C=C\CC[C@H](C)C[C@@H](C)[C@H](NC(=O)c4ccc(N(C)C)cc4)C(=O)N3C2)c2ccccc2c1=O [Compound 5073, (2R,6S,7R,9S,13aS,14aR,16aS,Z)—N-(cyclopropylsulfonyl)-6-(4-(dimethylamino)benzamido)-2-((3-ethyl-4-oxo-3,4-dihydrophthalazin-1-yl)oxy)-7,9-dimethyl-5,16-dioxo-1,2,3,5,6,7,8,9,10,11,13a,14,14a,15,16,16a-hexadecahydrocyclopropa[e]pyrrolo[1,2-a][1,4]diazacyclopentadecine-14a-carboxamide]",< 7.06,< 7.06,
"COc1ccc2c(Cl)cc(O[C@@H]3C[C@H]4C(=O)N[C@]5(C(=O)NS(=O)(=O)C6(C)CC6)C[C@H]5/C=C\CC[C@@H](C)C[C@@H](C)[C@H](NC(=O)OC(C)(C)C)C(=O)N4C3)nc2c1 [Compound 4300, tert-butyl ((2R,6S,7R,9R,13aS,14aR,16aS,Z)-2-((4-chloro-7-methoxyquinolin-2-yl)oxy)-7,9-dimethyl-14a-(((1-methylcyclopropyl)sulfonyl)carbamoyl)-5,16-dioxo-1,2,3,5,6,7,8,9,10,11,13a,14,14a,15,16,16a-hexadecahydrocyclopropa[e]pyrrolo[1,2-a][1,4]diazacyclopentadecin-6-yl)carbamate]",9.00 to 9.29,9.00 to 9.29,
"CCCOc1cnc(O[C@@H]2C[C@H]3C(=O)N[C@]4(C(=O)NS(=O)(=O)C5CC5)C[C@H]4/C=C\CC[C@H](C)C[C@@H](C)[C@H](NC(=O)OC(C)(C)C)C(=O)N3C2)c2ccccc12 [Compound 5088, tert-butyl ((2R,6S,7R,9S,13aS,14aR,16aS,Z)-14a-((cyclopropylsulfonyl)carbamoyl)-7,9-dimethyl-5,16-dioxo-2-((4-propoxyisoquinolin-1-yl)oxy)-1,2,3,5,6,7,8,9,10,11,13a,14,14a,15,16,16a-hexadecahydrocyclopropa[e]pyrrolo[1,2-a][1,4]diazacyclopentadecin-6-yl)carbamate]",< 7.06,6.99 to 8.32,"pEC50 ([1]; HCV genotype 1a replicon luciferase, read-out: LE_1a (EC50)): 6.99; pEC50 ([2]; HCV genotype 1b replicon luciferase, read-out: LE_1b (EC50)): 7.69"
"COc1cc2ccnc(O[C@@H]3C[C@H]4C(=O)N[C@]5(C(=O)NS(=O)(=O)C6(CF)CC6)C[C@H]5/C=C\CC[C@@H](C)C[C@@H](C)[C@H](NC(=O)OC(C)(C)C)C(=O)N4C3)c2cc1F [Compound 4159, tert-butyl (2R,6S,7R,9R,13aS,14aR,16aS,Z)-2-(7-fluoro-6-methoxyisoquinolin-1-yloxy)-14a-(1-(fluoromethyl)cyclopropylsulfonylcarbamoyl)-7,9-dimethyl-5,16-dioxo-1,2,3,5,6,7,8,9,10,11,13a,14,14a,15,16,16a-hexadecahydrocyclopropa[e]pyrrolo[1,2-a][1,4]diazacyclopentadecin-6-ylcarbamate]",> 8.26,> 8.26,
"COc1cnc(O[C@@H]2C[C@H]3C(=O)N[C@]4(C(=O)NS(=O)(=O)C5(CO)CC5)C[C@H]4/C=C\CC[C@H](C)C[C@@H](C)[C@H](N)C(=O)N3C2)c2ccccc12 [Compound 4113, (2R,6S,7R,9S,13aS,14aR,16aS,Z)-6-amino-N-(1-(hydroxymethyl)cyclopropylsulfonyl)-2-(4-methoxyisoquinolin-1-yloxy)-7,9-dimethyl-5,16-dioxo-1,2,3,5,6,7,8,9,10,11,13a,14,14a,15,16,16a-hexadecahydrocyclopropa[e]pyrrolo[1,2-a][1,4]diazacyclopentadecine-14a-carboxamide]",< 7.06,< 7.06,
"COc1ccc2c(O[C@@H]3C[C@H]4C(=O)N[C@]5(C(=O)NS(=O)(=O)C6(F)CC6)C[C@H]5/C=C\CC[C@@H](C)C[C@@H](C)[C@H](NC(=O)OC(C)(C)C)C(=O)N4C3)nccc2c1 [Compound 9, tert-butyl ((2R,6S,7R,9R,13aS,14aR,16aS,Z)-14a-(((1-fluorocyclopropyl)sulfonyl)carbamoyl)-2-((6-methoxyisoquinolin-1-yl)oxy)-7,9-dimethyl-5,16-dioxo-1,2,3,5,6,7,8,9,10,11,13a,14,14a,15,16,16a-hexadecahydrocyclopropa[e]pyrrolo[1,2-a][1,4]diazacyclopentadecin-6-yl)carbamate]",,,"pEC50 [1, 5]: > 8.26; pEC50 [2, 6]: > 8.26"
"C=COc1cnc(O[C@@H]2C[C@H]3C(=O)N[C@]4(C(=O)NS(=O)(=O)C5(C)CC5)C[C@H]4/C=C\CC[C@@H](C)C[C@@H](C)[C@H](NC(=O)OC(C)(C)C)C(=O)N3C2)c2ccccc12 [Compound 4134, tert-butyl (2R,6S,7R,9R,13aS,14aR,16aS,Z)-7,9-dimethyl-14a-(1-methylcyclopropylsulfonylcarbamoyl)-5,16-dioxo-2-(4-(vinyloxy)isoquinolin-1-yloxy)-1,2,3,5,6,7,8,9,10,11,13a,14,14a,15,16,16a-hexadecahydrocyclopropa[e]pyrrolo[1,2-a][1,4]diazacyclopentadecin-6-ylcarbamate]",> 8.26,> 8.26,
"COc1ccc2c(O[C@@H]3C[C@H]4C(=O)N[C@]5(C(=O)NS(=O)(=O)C6CC6)C[C@H]5/C=C\CC[C@H](C)C[C@@H](C)[C@H](NC(=O)OC(C)(C)C(F)(F)F)C(=O)N4C3)nc(-c3ccc(OC)c(Cl)c3)cc2c1 [Compound 3051, 1,1,1-trifluoro-2-methylpropan-2-yl((2R,6S,7R,9S,13aS,14aR,16aS,Z)-2-((3-(3-chloro-4-methoxyphenyl)-6-methoxyisoquinolin-1-yl)oxy)-14a-((cyclopropylsulfonyl)carbamoyl)-7,9-dimethyl-5,16-dioxo-1,2,3,5,6,7,8,9,10,11,13a,14,14a,15,16,16a-hexadecahydrocyclopropa[e]pyrrolo[1,2-a][1,4]diazacyclopentadecin-6-yl)carbamate]",,,"pEC50 [1, 5]: 6.99 to 8.32; pEC50 [2, 6]: > 8.26"
COc1ccc2c(O[C@@H]3C[C@H]4C(=O)N[C@]5(C(=O)NS(=O)(=O)C6(CF)CC6)C[C@H]5/C=C\CC[C@@H](C)C[C@@H](C)[C@H](NC(=O)OC(C)(C)C(F)(F)F)C(=O)N4C3)ncc(F)c2c1 [Compound 4378],,,"pEC50 ([1]; GETYPE1A, HCV genotype 1a replicon luciferase, read-out: LE_1a (EC50, range)): 8.30 to 9.00; pEC50 ([2]; GETYPE1B, HCV genotype 1b replicon luciferase, read-out: LE_1b (EC50, range)): 9.00 to 9.29"
"COc1cnc(O[C@@H]2C[C@H]3C(=O)N[C@]4(C(=O)NS(=O)(=O)C5(F)CC5)C[C@H]4/C=C\CC[C@@H](C)C[C@@H](C)[C@H](NC(=O)OCC4(C)CC4)C(=O)N3C2)c2cc(F)ccc12 [Compound 4048, (1-methylcyclopropyl)methyl (2R,6S,7R,9R,13aS,14aR,16aS,Z)-2-(7-fluoro-4-methoxyisoquinolin-1-yloxy)-14a-(1-fluorocyclopropylsulfonylcarbamoyl)-7,9-dimethyl-5,16-dioxo-1,2,3,5,6,7,8,9,10,11,13a,14,14a,15,16,16a-hexadecahydrocyclopropa[e]pyrrolo[1,2-a][1,4]diazacyclopentadecin-6-ylcarbamate]",> 8.26,> 8.26,
"COc1ccc2c(O[C@@H]3C[C@H]4C(=O)N[C@]5(C(=O)NS(=O)(=O)C6CC6)C[C@H]5/C=C\CC[C@H](C)C[C@@H](C)[C@H](NC(=O)O[C@@H]5C[C@@H]6C[C@@H]6C5)C(=O)N4C3)nc(-c3ccc(F)cc3)cc2c1 [Compound 3045, (1R,3r,5S)-bicyclo[3.1.0]hexan-3-yl((2R,6S,7R,9S,13aS,14aR,16aS,Z)-14a-((cyclopropylsulfonyl)carbamoyl)-2-((3-(4-fluorophenyl)-6-methoxyisoquinolin-1-yl)oxy)-7,9-dimethyl-5,16-dioxo-1,2,3,5,6,7,8,9,10,11,13a,14,14a,15,16,16a-hexadecahydrocyclopropa[e]pyrrolo[1,2-a][1,4]diazacyclopentadecin-6-yl)carbamate]",,,"pEC50 [1, 5]: > 8.26; pEC50 [2, 6]: > 8.26"
"CCOc1cnc(O[C@@H]2C[C@H]3C(=O)N[C@]4(C(=O)NS(=O)(=O)C5(C)CC5)C[C@H]4/C=C\CC[C@@H](C)C[C@@H](C)[C@H](NC(=O)Oc4ccccc4F)C(=O)N3C2)c2ccccc12 [Compound 4139, 2-fluorophenyl (2R,6S,7R,9R,13aS,14aR,16aS,Z)-2-(4-ethoxyisoquinolin-1-yloxy)-7,9-dimethyl-14a-(1-methylcyclopropylsulfonylcarbamoyl)-5,16-dioxo-1,2,3,5,6,7,8,9,10,11,13a,14,14a,15,16,16a-hexadecahydrocyclopropa[e]pyrrolo[1,2-a][1,4]diazacyclopentadecin-6-ylcarbamate]",6.99 to 8.32,6.99 to 8.32,
